Publication PMC12040169 (PLOS Biology, 2025)

Experiment: in vitro
Conditions: human, hela cells, % viability

In order of falling viability at 28.5 h, 10 µM:
1. CC(C)Oc1cc(NC(=O)CS(=O)(=O)CC(=O)N(C)C)c(Cl)cc1Cl [CBK018112]  113%
2. COc1ccc(-c2cc(C(=O)NCCc3c[nH]cn3)cnc2-c2ccc(F)cc2)cn1 [CBK036675]  112%
3. Cc1cc(Cl)cc(Br)c1OCCNCCN1CCOCC1 [CBK268615G]  111%
4. COc1ccc(Br)c(C(=O)Nc2[nH]nc(O)c2Cc2c(Cl)cccc2Cl)c1 [CBK084554]  111%
5. CCOCC1CCN(C(=O)c2ncsc2Nc2cccnc2)C1 (stereo not drawn) [CBK304514]  110%
6. COc1ccc(-c2nc(-c3ccc(C(=O)N4CCOCC4)cc3)cnc2N)cc1 [CBK116509]  108%
7. CSc1nc2c(cc1C#N)CCC2 [CBK026532]  108%
8. CN1CCN(c2cc3ncccc3cc2F)CC1 [CBK066904]  105%
9. Cc1nc(C)n(CCc2nc3ccccc3[nH]2)n1 [CBK269364]  105%
10. Cc1cc(-c2nnc(SCC(=O)N3CCOCC3)o2)no1 [CBK268984]  103%
11. O=C(O)c1cccc(NS(=O)(=O)c2ccc(S(=O)(=O)N3CCCCC3)cc2)c1 [CBK295295]  101%
12. c1ccc(CN2CCC(c3ccncc3)CC2)nc1 [CBK283505]  101%
13. CC(=O)N/C(=C\c1ccccc1)C(=O)NC(C)C(=O)O (stereo not drawn) [CBK261491]  99.1%
14. Cn1c(=O)c2[nH]c(NCCN3CCOCC3)nc2n(C)c1=O [CBK266189]  98.6%
15. Cc1cc(-c2cc(=O)n(Cc3ccc(F)cc3)nc2C2CC2)on1 [CBK284364]  98.2%
16. CNC(=S)N(CCS(=O)(=O)c1ccc(Cl)cc1)Cc1cccs1 [CBK006431]  97.5%
17. Nc1ncc(-c2ccoc2)nc1NCc1ccco1 [CBK063652]  97.2%
18. COc1cccc(CN2C(=O)CC3(C2=O)C(=O)N(Cc2ccc4ccccc4n2)c2ccccc23)c1 (stereo not drawn) [CBK076016]  96.2%
19. Cc1nc(CN2CCC(Oc3nccnc3OCc3ccc(Cl)c(Cl)c3)CC2)cs1 [CBK153787]  95.9%
20. CC(C)(N)CNC(=O)c1cc(C(C)(C)C)nn1Cc1ccc(Cl)cc1Cl [CBK107296]  95.6%
21. CN(C)CCCOc1ccc2c(c1)Sc1ccccc1CC2=O [CBK058002]  95.4%
22. COc1ccc(CC(=O)N2CCCC(c3cc4ncccc4[nH]3)C2)cc1 (stereo not drawn) [CBK283418]  94.5%
23. c1ccn(CCOc2nccnc2-c2ccsc2)c1 [CBK106772]  94.4%
24. O=C(NC(=O)C1CCNCC1)Nc1ccccc1 [CBK034794]  93.8%
25. CC1CCc2n[nH]c(C(=O)N3CCc4ncc(Cl)cc4C3)c2C1 (stereo not drawn) [CBK284874]  93.6%
26. CCN(CC)C(=O)c1ccsc1NS(=O)(=O)c1ccc(Br)cc1 [CBK042318]  93.2%
27. O=C(CC1S/C(=N/N=C/c2ccc(-c3ccc(Cl)c([N+](=O)[O-])c3)o2)NC1=O)Nc1ccccc1 (stereo not drawn) [CBK264473]  92.9%
28. COC(=O)Nc1ccc(S(=O)(=O)N2CCCC(C(=O)Nc3cccc(C(F)(F)F)c3)C2)cc1 (stereo not drawn) [CBK265248]  92.3%
29. Cc1ccc(C2CCCN2C(=O)c2cccn(CC(=O)NC3CCCCC3)c2=O)cc1C (stereo not drawn) [CBK286009]  92.2%
30. COc1ccc(CCNC(=O)c2cccc(-c3ccc(OC4CCNCC4)cc3)n2)cc1OC [CBK126548T]  91.7%
31. CN(C)C(=O)c1cccc(-c2nccnc2NCCO)c1 [CBK036582]  90.3%
32. O=C(CN1C(=O)c2ccccc2C1=O)NCc1ccc(C(=O)O)cc1 [CBK262795]  90.2%
33. O=C(Cn1ccccc1=O)Nc1ccc(OCC(F)(F)F)nc1 [CBK304556]  88.9%
34. CS(=O)(=O)c1ccc2ncnc(NCC(CO)Cc3ccccn3)c2c1 (stereo not drawn) [CBK306493]  88.7%
35. Cc1nc(-c2cccnc2)[nH]c(=O)c1CC(=O)N(C)C1CCCCC1 [CBK306310]  88.7%
36. COc1cc(C(=O)Nc2ccc3oc(-c4cccnc4)nc3c2)ccc1OCc1ccc(Cl)cc1 [CBK264037]  87.9%
37. NC(=O)CN1CCCC2(CCN(C(=O)Cc3c[nH]c4ccccc34)C2)C1 (stereo not drawn) [CBK132046]  87.4%
38. O=C(NC(S(=O)O)C(F)(F)F)OCc1ccccc1 (stereo not drawn) [CBK018979]  87%
39. Cc1ccccc1Cc1cccc(C2CCN(S(=O)(=O)c3cn(C)nc3C)CC2)n1 [CBK286141]  86.7%
40. CC1(C)CC(=O)c2sc(NC(=O)c3ccccc3)nc2C1 [CBK287318]  85.6%
41. Cc1ccc(NC(=O)c2ccc(-n3nncc3C)cc2)cc1 [CBK287790]  80.9%
42. Cc1cc(NC(=O)N2CCN(c3ncccc3C#N)CC2)no1 [CBK305901]  80.5%

Same assay, conditions: human, hela cells, % viability, bulk resorufin, single well

In order of rising viability at 28.5 h, 10 µM:
1. COc1ccc(Cn2nc(C(=O)O)c3ccccc32)cc1OC [CBK093529]  93%
2. CC1(C)CC(=O)C=C(C(=O)Nc2cccc(-c3ccc4c(c3)COC3(CCNCC3)O4)c2)O1 [CBK093704]  97.8%
3. CCOc1cc(C=C2C(=O)NC(=S)NC2=O)cc(Br)c1OCC(=O)O [CBK265411]  98.4%
